The source of these data is ChEMBL document CHEMBL5154860 (J Med Chem, 2022).

A short description of data set [1]: in vivo. Particulars: Sprague-Dawley, rat, brain / plasma, iv, 0.2 mg/kg.
Data set [2] can be described thus: in vivo. Particulars: Sprague-Dawley, rat, brain / plasma, iv, 0.2 mg/kg. The source holds these as a separate data set.
The nature of data set [3]: in vivo. Particulars: Sprague-Dawley, rat, po, 10 mg/kg.
A short description of data set [4]: in vitro. Particulars: dog, MDCK-MDR1.
The nature of data set [5]: in vivo. Particulars: Sprague-Dawley, rat, iv, 1 mg/kg.
Data set [6] is described as follows: in vitro. Particulars: Sprague-Dawley, rat, liver microsomes.
The nature of data set [7]: in vivo. Particulars: Sprague-Dawley, rat, iv, 1 mg/kg. This is another data set of the same source.
The nature of data set [8]: in vivo. Particulars: Sprague-Dawley, rat, iv, 1 mg/kg. This is another data set of the same source.
Data set [9] in a line: in vivo. Particulars: Sprague-Dawley, rat, iv, 1 mg/kg. This is another data set of the same source.
A short description of data set [10]: in vivo. Particulars: Sprague-Dawley, rat, iv, 1 mg/kg. This is another data set of the same source.
Data set [11] in a line: in vitro. Particulars: human, liver microsomes.
Data set [12] in a line: in vivo. Particulars: Sprague-Dawley, rat, po, 10 mg/kg. This is another data set of the same source.
Data set [13] in a line: in vivo. Particulars: Sprague-Dawley, rat, po, 10 mg/kg. This is another data set of the same source.
Data set [14] in a line: in vivo. Particulars: Sprague-Dawley, rat, po, 10 mg/kg. This is another data set of the same source.

The compound `Cc1nnc(SCC2CCN(S(=O)(=O)c3ccc4c(c3)CCO4)CC2)s1` had a Kp uu in “in vivo [1]” of 1.1. This compound also came in with a Kp in “in vivo [2]” of 1.25.
`CC(Sc1nccn1C)C1CCN(S(=O)(=O)c2ccc3c(c2)CCO3)CC1` (centres undefined): in “in vivo [1]”, the Kp uu came to 0.29. The compound also had a concentration ratio (Kp) in the data set “in vivo [2]” of 0.22.
In the data set “in vivo [1]”, `Cc1nc(SCC2CCN(S(=O)(=O)c3ccc4c(c3)CCO4)CC2)n(C)c1C` returned a Kp uu of 0.32. Moreover, the concentration ratio (Kp) in “in vivo [2]” turned out to be 0.22.
Compound `Cn1ccnc1SC[C@H]1CCN(S(=O)(=O)c2ccc3c(c2)CCO3)C[C@@H]1F` displayed a maximum concentration (Cmax) at 24 h in “in vivo [3]” of 433 ng/mL. Moreover, in “in vitro [4]”, the Papp turned out to be 26.8 ×10⁻⁶ cm/s. In the data set “in vivo [5]”, this compound returned a half-life at 24 h of 14.6 h. In addition, the figures for the intrinsic metabolic clearance (CLint scaled) at […], 1 µM in “in vitro [6]” and in the data set “in vitro [11]” were 1770 mL/min/kg and 318 mL/min/kg, respectively. In addition, the clearance at 24 h in “in vivo [7]” amounted to 56.5 mL/min/kg. Also, the distribution volume (Vd) at 24 h in the data set “in vivo [8]” amounted to 36.6 L/kg. The MRT at 24 h in the data set “in vivo [9]” was 10.7 h. The figures for the AUC at 24 h in “in vivo [10]” and in “in vivo [13]” were 301 ng·h/mL and 830 ng·h/mL, respectively. This compound had a bioavailability at 24 h in the data set “in vivo [12]” of 27.6%. Further, the Tmax at 24 h in “in vivo [14]” was determined as 0.25 h.
Consider `Cn1ccnc1SCC1CCN(S(=O)(=O)c2ccc3ncsc3c2)CC1`, for which the Kp uu in “in vivo [1]” is less than 0.5. The same compound registered a Kp in the data set “in vivo [2]” of less than 0.48.
`Cn1ccnc1SCC1CCN(S(=O)(=O)c2ccc3c(c2)OCO3)CC1`: in the data set “in vivo [1]”, the Kp uu is 1.88. Moreover, in “in vivo [2]”, the Kp came to 0.53.
In turn, `Cc1cn(C)c(SCC2CCN(S(=O)(=O)c3ccc4c(c3)CCO4)CC2)n1` had a Kp uu in “in vivo [1]” of 0.19. In the data set “in vivo [2]”, this compound came in with a Kp of 0.07.
`Cn1ccnc1SCC1CCN(S(=O)(=O)c2ccc3c(c2)CCO3)CC1` had a Kp uu in “in vivo [1]” of 0.11. Moreover, the intrinsic clearance (CLint scaled) at […], 1 µM in “in vitro [11]” stood at 1270 mL/min/kg. In “in vivo [2]”, this compound had a Kp of 0.08.
As for `O=S(=O)(c1ccc2c(c1)CCO2)N1CCC(CSc2nccs2)CC1`, the Kp uu in “in vivo [1]” is 0.23. The compound also yielded a partition ratio (Kp) in “in vivo [2]” of 0.27.
